Experimental data published in ChEMBL document CHEMBL4706520, “Development of disulfide-derived fructose-1,6-bisphosphatase (FBPase) covalent inhibitors for the treatment of type 2 diabetes” (Eur J Med Chem, 2020).

Experiments:
[1] = molecular target: T1, Fructose-1,6-bisphosphatase 1 (Homo sapiens, UniProt P09467); test: Inhibition of wild-type full-length human liver FBPase expressed in Escherichia coli BL21 (DE3) using FBP as substrate by malachite green dye based assay; assay type: tissue-based
T1 sequence (P09467 whole entry): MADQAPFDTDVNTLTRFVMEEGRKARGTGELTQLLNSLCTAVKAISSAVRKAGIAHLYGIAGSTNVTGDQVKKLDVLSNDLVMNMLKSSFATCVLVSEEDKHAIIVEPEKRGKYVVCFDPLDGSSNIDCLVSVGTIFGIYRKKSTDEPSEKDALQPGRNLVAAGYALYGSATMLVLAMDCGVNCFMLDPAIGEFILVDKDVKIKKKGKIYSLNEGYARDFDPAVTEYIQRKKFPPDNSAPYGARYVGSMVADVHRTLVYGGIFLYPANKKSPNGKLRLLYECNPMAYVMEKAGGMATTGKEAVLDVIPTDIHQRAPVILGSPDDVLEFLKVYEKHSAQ

Mus musculus [2] = test: Glucose lowering activity in 12 hrs fasting normoglycemic ICR mouse assessed as time for maximum blood glucose reduction at 25 to 50 mg/kg, ip by glucometer; assay type: functional; details: dose 25-50 mg/kg
HepG2 = test: Cytotoxicity against human HepG2 cells assessed as reduction in cell viability measured after 48 hrs by cell counting kit-8 assay; assay type: functional, cell-based; details: HepG2, 48 h
Mus musculus [3] = test: Glucose lowering activity in 12 hrs fasting normoglycemic ICR mouse assessed as reduction in blood glucose level at 50 mg/kg, ip measured upto 8 hrs by glucometer; assay type: functional; details: time hrs <=8

Row | IC50 [1] | Structure (SMILES) | other results
1 | > 10 µM | S=C(SSC(=S)n1c2ccccc2c2ccccc21)n1c2ccccc2c2ccccc21 | –
2 | 0.6 µM | Clc1ccccc1SSc1nccs1 | Time (Mus musculus [2]): 6 h; IC50 (HepG2): 64.5 µM; inhibition in vivo at 50 mg/kg (Mus musculus [3]): 50%
3 | > 10 µM | CCCN(CCC)C(=S)SSC(=S)N(CCC)CCC | –
4 | > 10 µM | c1csc(SSC2CCCC2)n1 | –
5 | > 10 µM | S=C(SSC(=S)n1ncc2ccccc21)n1ncc2ccccc21 | –
6 | 5.39 µM | CCSSc1nccs1 | –
7 | > 10 µM | Cc1cccn1C(=S)SSC(=S)n1cccc1C | –
8 | 1.29 µM | Clc1ccc(SSc2nncs2)cc1 | –
9 | 1.94 µM | Nc1nnc(SSc2ccc(Cl)cc2)s1 | –
10 | > 10 µM | CN(C(=S)SSC(=S)N(C)c1ccc(-c2ccccc2)cc1)c1ccc(-c2ccccc2)cc1 | –
11 | 7.6 µM | Nc1ccc(SSc2nccs2)cc1 | –
12 | > 10 µM | Cn1ccnc1SSc1nccn1C | –
13 | 3.32 µM | Clc1nnc(SSc2nnc(Cl)s2)s1 | –
14 | > 10 µM | S=C(SSC(=S)N1CCCc2ccccc21)N1CCCc2ccccc21 | –
15 | > 10 µM | CCN(CC)C(=S)SCSC(=S)N(CC)CC | –
16 | > 10 µM | CN(Cc1ccccc1)C(=S)SSC(=S)N(C)Cc1ccccc1 | –
17 | > 10 µM | CCN(CC)C(=O)CSC(=S)N(CC)CC [(DIETHYLCARBAMOYL)METHYLENE DIETHYLCARBAMODITHIOATE] | –
18 | > 10 µM | CCN(CC)C(=S)CSC(=S)N(CC)CC [(DIETHYLTHIOCARBAMOYL)METHYLENE DIETHYLCARBAMODITHIOATE] | –
19 | 0.31 µM | c1ccc2sc(SSc3nc4ccccc4s3)nc2c1 [BENZOTHIAZYL DISULFIDE] | Time (Mus musculus [2]): 6 h; IC50 (HepG2): > 100 µM; inhibition in vivo at 50 mg/kg (Mus musculus [3]): 54%

Row | Structure (SMILES) | IC50 [1] | other results
20 | CC(C)N(C(=S)SSC(=S)N(C(C)C)C(C)C)C(C)C | > 10 µM | –
21 | O=C(O)C1CCN(C(=S)SSC(=S)N2CCC(C(=O)O)CC2)CC1 | > 10 µM | –
22 | S=C(SSC(=S)N1CCC1)N1CCC1 | > 10 µM | –
23 | CN(C(=S)SSC(=S)N(C)c1ccccc1)c1ccccc1 | > 10 µM | –
24 | CN1CCN(C(=S)SSC(=S)N2CCN(C)CC2)CC1 | > 10 µM | –
25 | S=C(SSC(=S)N1CCc2ccccc2C1)N1CCc2ccccc2C1 | > 10 µM | –
26 | S=C(SSC(=S)N1CCCCC1)N1CCCCC1 [BIS(PIPERIDINYLTHIOCARBONYL)DISULFIDE] | 8.78 µM | –
27 | S=C(SSC(=S)N1CCCC1)N1CCCC1 [BIS(PYRROLIDINYLTHIOCARBONYL)DISULFIDE] | 2.28 µM | –
28 | CCN(CC)C(=S)SC(=S)N(CC)CC [SULFIRAM] | > 10 µM | –
29 | CN(C)C(=S)SSC(=S)N(C)C [THIRAM] | 2.29 µM | –
